Test results reported in US20220105157A1, “Compositions and Methods for Promoting Angiogenesis in the Eye” (The Regents of the University of California, priority 2019, published 2022).

Experiments:
[1] = test system: human retinal microvascular endothelial (HRME) cells; test: HRME endothelial cell proliferation assay (alamar blue); assay type: cell-based
Procedure: (§1) The bovine endothelial proliferation assays were performed essentially as previously described (63, 64). BCE (1×10^3 cells/well) or BRE (5×10^2 cells/well) cells were seeded in 96-well plates in the culture medium (DMEM-low glucose supplemented with 10% BCS, 2 mM glutamine and antibiotics) plus testing materials with a total volume of 200 μl per well. BAE cells were plated in 96-well plates at a density of 2×10^3 cells in the culture medium (DMEM-low glucose supplemented with 1% BCS and antibiotics) plus testing material with a total volume of 200 μl per well. HRME cells were seeded at a density of 1×10^3 cells/well in gelatin-coated 96-well plates in assay medium (DMEM-low glucose supplemented with 20% FBS and antibiotics) plus testing materials to make a total volume 200 μl per well. For assays involving antibodies or small-molecule inhibitors, inhibitors or vehicle controls were first added and then test materials were added one hour later. After 6 days (unless otherwise specified), cells were incubated with alamar blue for 4 h. Fluorescence was measured at 530 nm excitation wavelength and 590 nm emission wavelength. Each experiment was carried out in duplicate/triplicate and repeated at least three times.

[2] = test system: phosphorylation of STAT3, ERK and AKT in BAE cells; test: Western blotting of LIF signaling in BAE cells; assay type: cell-based, bovine; details: LIF treatment for 15 minutes
Procedure: BCE and BAE cells were cultured in growth medium overnight. Growth medium was removed and then cells were washed twice with PBS. Recombinant human LIF was added to cells for 15 minutes, following 3-hour incubation in the following medium: DMEM-low glucose supplemented with 10% BCS, 2 mM glutamine and antibiotics for BCE cells, and DMEM-low glucose supplemented with 1% BCS and antibiotics for BAE cells. […] Cells were then lysed with RIPA lysis buffer (Life Technologies, CAT #89901) plus protease and phosphatase inhibitor cocktail (ThermoFisher Scientific CAT #78440). Protein concentrations in cell lysates were measured with the BCA assay (ThermoFisher Scientific CAT #23227). Equal amount of proteins were subjected to electrophoresis in NuPAGE 4-12% Bis-Tris gels (ThermoFisher Scientific, CAT #NW04125BOX) and then transferred onto PVDF membranes. Membranes were blocked with 5% non-fat milk in TBST at room temperature for 1 hour, incubated with primary antibodies indicated below in TBST containing 0.5% non-fat milk at 4° C. overnight then with secondary HRP-conjugated antibodies (1:2000, GE Healthcare) at room temperature for 1 h. Signals were developed with SuperSignal™ West Pico PLUS Chemiluminescent Substrate (ThermoFisher Scientific). Primary antibodies used: anti-phospho-STAT3 (Cell Signaling, CAT #9131, 1:3000), anti-STAT3 (Cell Signaling, CAT #4904, 1:3000), anti-phospho-ERK (Cell Signaling, CAT #4376, 1:5000), anti-ERK (Cell Signaling, CAT #4695, 1:5000), anti-phospho-AKT Ser473 (Cell Signaling, CAT #4060, 1:2000), anti-AKT (Cell Signaling, CAT #4691, 1:2000) and HRP-conjugated anti-beta-actin (Sigma, CAT #AC-15, 1; 10000).

[3] = test system: retinal vasculature of mouse eyes; test: Intravitreal injection of recombinant proteins in mouse eyes, retinal vessel density; assay type: in vivo; details: for retinal microvessel density (CD31): 6-8 week old mice, intravitreal
Procedure: Male C57BL/6J mice (6-8 week and P5) were anesthetized with ketamine/Xylazine cocktail. The indicated amounts of recombinant LIF (Sigma, CAT #SRP9001) in 1 μl of PBS and PBS vehicle control were injected intravitreally with a 33-gauge Hamilton syringe. Seven (for adult mice) or 3 (for neonatal mice) days after injection, animals were euthanized, eyes were then enucleated and fixed in 4% paraformaldehyde (PFA) for 15 min. Choroid-sclera complexes and retinas were separated and anti-CD31 immunofluorescence (IF) or lectin labeling was performed to evidence the vasculature by whole mount staining of both retina and choroidal tissues or flat-mounts of retina. For CD31 IF, rat anti-mouse antibody (BD Biosciences, CAT #550274) was diluted 1:100 and incubated overnight at 4° C. After 4-hour incubation with the Alexa Fluor-488-conjugated anti-rat antibody (Life Technologies, CAT #A11006), whole mounts were imaged via the 488 nm channel using Keyence Microscope BZ-X710 (Keyence Corporation, Osaka, Japan) or A1R Confocal STORM super-resolution system (Nikon). For lectin staining, Dylight-488-labeled lectin (Vector Laboratories, CAT #DL-1174) was diluted at 1:200 and images were obtained using A1R Confocal STORM super-resolution system (Nikon). For Quantification of vascular density in choroids and retina was carried out by Image J. Student's t test was used for statistical analysis. Each experiment was repeated three times with similar results each time, and each treatment group consists of 4 or 5 individual samples in every experiment. All animal experimental procedures were approved by the Institutional Animal Care and Use Committee (IACUC) of the University of California San Diego and conducted in accordance with the guidelines of the Animal Care Program (ACP).
Optical coherence tomography angiography (OCTA) imaging of the retina of adult mice was performed 7 days after LIF injection, using a 1300 nm optical coherence tomography (OCT) system developed by Dr. R. K. Wang's group at University of Washington Seattle, in agreement with previously described methodology (66). Briefly, the swept laser operated in single longitude mode with a 90 nm bandwidth centered at 1300 nm and 200 kHz A-line rate was used to scan mouse retina and to generate images of vasculature in a field of view of 1.5×1.5 mm^2. 2500 B-frames were captured at 500 cross-sections with five repeated B-frames at each cross-section. To quantify the retinal vascular density, retinal and choroidal layers in 3D structure OCT scans were separated by the hyper-reflecting retinal pigment epithelium (RPE). Then the en face maximum intensity projection was generated. The vessel density was then determined by calculating the percentages of vessel-covered area in total area of view using the ImageJ software.

[4] = test system: choroid capillaries of NaIO3-treated mice; test: Sodium iodate (NaIO3) model, choroid capillary recovery; assay type: in vivo, mouse; details: NaIO3 20 mg/kg i.v.; intravitreal LIF 50 ng, CT-1 different doses, OSM 10 ng; OCT-A
Procedure: Eight-week-old C57BL/6J mice were anesthetized with ketamine/xylazine cocktail. Sterilized NaIO3 was administered as a single intravenous injection (20 mg/kg body weight) (28) (29). Control mice were injected with PBS. PBS, LIF (50 ng), CT-1 (different doses) or OSM (10 ng) was injected intravitreally in five-mice groups. Five, seven and nine days after injection, choroid capillaries were monitored by OCT-A system. 9 days after injection, mice were killed and eyes were harvested for H&E and immunofluorescent staining. Avascular area in choroid capillaries was analyzed using ImageJ.

[5] = test system: bovine aortic endothelial (BAE) cells; test: BAE endothelial cell proliferation assay (alamar blue); assay type: cell-based
Procedure: as §1

Substance: LIF: recombinant human leukemia inhibitory factor, a member of the IL-6 family of cytokines
- effect on VEGF-stimulated growth of human retinal microvascular endothelial cells ([1]; LIF added to VEGF): significantly enhanced VEGF-stimulated growth
- mitogenic response in human retinal microvascular endothelial cells ([1]; LIF alone): did not elicit a strong mitogenic response
- phosphorylation of AKT [2]: led to phosphorylation
- phosphorylation of ERK (MAPK) [2]: led to phosphorylation
- phosphorylation of STAT3 [2]: led to phosphorylation
- retinal vascular density in neonatal mice (lectin) ([3]; 5-day postnatal (P5) mice, intravitreal LIF 50 ng, three days after the injection): significant increase in vascular density
- retinal microvessel density (CD31) ([3]; 10 ng per eye, 7 days): significantly increased
- retinal microvessel density (CD31) ([3]; 100 ng, 7 days): less effective
- vessel density in retina, CD31 immunofluorescence in cross sections of mouse eyes ([3]; adult mice, intravitreal LIF 10 ng, 7 days): increased vessel density
- retinal vessel density by OCTA ([3]; adult mice, intravitreal LIF 50 ng, 7 days): significant increases
- avascular areas in choroid compared to PBS group [4]: reduced avascular areas
- BAE cell growth [5]: growth inhibition
